{"source": "ChEMBL document CHEMBL1124341", "about": "“1',2'-seco-dideoxynucleosides as potential anti-HIV agents” (J Med Chem, 1989)", "key": {"ATH-8 cell line [1]": {"tested_on": "ATH-8 cell line", "experiment": "Tested against ATH8 cells infected with HIV (2 x 10 e3 virus partials per cell) at concentration of 20 µM; Completely protected", "format": "functional, cell-based", "settings": "Homo sapiens"}, "ATH-8 cell line [2]": {"tested_on": "ATH-8 cell line", "experiment": "Tested against ATH8 cells infected with HIV (2 x 10 e3 virus partials per cell) at concentrations ranging from 1 to 100 µM; No protection", "format": "functional, cell-based", "settings": "Homo sapiens"}}, "data": [{"compound": "Nc1ncnc2c1ncn2[C@H]1CC[C@@H](CO)O1", "values": [{"measurement": "Activity", "setting": "ATH-8 cell line [1]", "result": "Completely protected"}]}, {"compound": "CCC(CO)OCn1ccc(N)nc1=O", "note": "(stereo not given)", "values": [{"measurement": "Activity", "setting": "ATH-8 cell line [2]", "result": "No protection"}]}, {"compound": "CCC(CO)OCn1cnc2c(N)ncnc21", "note": "(stereo not given)", "values": [{"measurement": "Activity", "setting": "ATH-8 cell line [2]", "result": "No protection"}]}, {"compound": "CCC(CO)OCn1cnc2c(O)ncnc21", "note": "(stereo not given)", "values": [{"measurement": "Activity", "setting": "ATH-8 cell line [2]", "result": "No protection"}]}, {"compound": "CCC(CO)OCn1cnc2c(O)nc(N)nc21", "note": "(stereo not given)", "values": [{"measurement": "Activity", "setting": "ATH-8 cell line [2]", "result": "No protection"}]}]}
